This passage reports Ki, concentration and Kp results from PMC8456950, “Structure‐Guided Design of G‐Protein‐Coupled Receptor Polypharmacology” (Angewandte Chemie (International Ed. in English), 2021).

One data set deals with T1, Human D2R (Homo sapiens, UniProt P14416).
T1 construct: expressed in transfected cells; host or cells: CHO-D2R #S20 cell line (membranes)
Put plainly: D2R competition binding ([3H]-spiperone displacement). The following applies: radioligand displacement, mean±SEM of three experiments in duplicate; read-out: D2R binding affinity Ki. On the procedure:
Human D2R competition binding experiments w ere carried out in polypropylene 96-well plates. Each well contained 10 µg of membranes from a CHO-D2R #S20 cell line (protein concentration of 3241 µg/ml), 0.4 nM [3H]-spiperone (80. 2 Ci/mmol, 1 mCi/ml, Perkin […]
The reaction mixture (250 µl/well) was incubated at 25°C for 120 min , after which 200 µL was transferred to a GF/C 96 -well plate (Millipore, Madrid, Spain) pretreated with 0. 5% of PEI and treated with binding buffer (50 mM Tris-HCl, 1 mM EDTA, 5 mM MgCl2, 5 mM KCl, 120 mM NaCl, pH=7.4). The […]
samples were filtered and washed four times with 250 µl wash buffer (50 mM Tris-HCl, 0.9% NaCl, pH=7.4) before measuring in a microplate beta scintillation counter (Microbeta Trilux, PerkinElmer, Madrid, Spain). Three independent exp eriments were carried out to calculate Ki values (n=3). […]
A general note: Loss of bound radioactivity is the signal in a displacement assay; it reports binding, not function.

The next data set addresses Human A2AAR (Homo sapiens, UniProt P29274). Put plainly: A2AAR competition binding ([3H]-ZM241385 displacement). Details: expressed in transfected cells; host or cells: HeLa-A2AAR cell line (membranes). As to conditions: radioligand displacement, mean±SEM of three experiments in duplicate; read-out: A2AAR binding affinity Ki. The protocol:
Binding assays. Human A2AAR competition binding experiments were carried out in multiscreen GF/C 96-well plates (Millipore, Madrid, Spain) pretreated with binding buffer (50 mM Tris-HCl, 1 mM EDTA, 10 mM MgCl2, 2 U/ml adenosine deaminase, pH=7.4).
Each well contained 5 µg of membranes from a He l a-A2AAR cell line (protein concentration […]
compound studied. Non-specific binding was determined in the presence of 50 µM NE C A (Sigma E2387). The reaction mixture (200 µl/well) was incubated at 25 °C for 30 min, after which it was filtered and washed four times with 250 µl wash buffer (50 mM Tris -HCl, 1 mM EDTA, 10 mM MgCl 2, pH=7. 4) before measuring in a microplate beta scintillation counter (Microbeta Trilux, PerkinElmer, Madrid, Spain). Three independent experiments were carried out to calculate K i values (n=3). […]

The nature of data set [1]: Blood-brain distribution in rats. The format is in vivo. As to conditions: male, Sprague Dawley, rat, 24 mg kg^−1 IP. On the procedure:
Blood-brain distribution. Measurements of blood-brain distribution in rats were performed by Admescope (Finland). The male Sprague Dawley rats (120-157 g) were housed in air-conditioned rooms (12h dark/light cycle) at 22 °C and a humidity of 55%. Animals were allowed to acclimatize to the site for at least five days prior to the study.
Compound 30 (24 mg/kg, formulated in 17% DMSO in saline) was administered intraperitoneally and blood samples were collected at 10, 30, and 50 min after dosing. Within 30 min following the sampling, the blood was centrifuged for plasma separation (room temperature; 10 min; 2700 G). The plasma samples were transferred into plastic tubes, frozen and stored at –20 °C until analysis. Brains were perfused under terminal isoflurane anaesthesia at 10, 30 and 50 min after dosing (n=6 per time point). For the perfusion, the heart of the rat was expo sed and major veins leading to the right atrium were severed. […]
Evaluation of compound 30 in rodent model of Parkinsonism. […] Two weeks after the unilateral 6-OHDA lesion, rats were injected with apomorphine (1 mg/kg, IP; Sigma) and their contralateral rotations were measured to determine the degree of nigrostriatal denervation. […] The number of rotations was calculated automatically with Noldus EthoVision XT11. […]

Human A2AAR, sequence (P29274 whole entry): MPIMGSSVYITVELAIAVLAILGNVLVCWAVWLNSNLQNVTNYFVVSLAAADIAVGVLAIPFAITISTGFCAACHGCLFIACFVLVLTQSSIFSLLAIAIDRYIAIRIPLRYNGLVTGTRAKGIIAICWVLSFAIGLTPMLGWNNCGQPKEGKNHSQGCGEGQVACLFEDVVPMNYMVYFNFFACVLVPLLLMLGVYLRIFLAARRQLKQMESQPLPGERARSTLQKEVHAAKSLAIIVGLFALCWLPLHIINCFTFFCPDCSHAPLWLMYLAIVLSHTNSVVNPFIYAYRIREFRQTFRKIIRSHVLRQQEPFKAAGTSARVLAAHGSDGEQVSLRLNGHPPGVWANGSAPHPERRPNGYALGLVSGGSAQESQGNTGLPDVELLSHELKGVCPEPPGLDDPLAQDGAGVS
T1 sequence (P14416 whole entry): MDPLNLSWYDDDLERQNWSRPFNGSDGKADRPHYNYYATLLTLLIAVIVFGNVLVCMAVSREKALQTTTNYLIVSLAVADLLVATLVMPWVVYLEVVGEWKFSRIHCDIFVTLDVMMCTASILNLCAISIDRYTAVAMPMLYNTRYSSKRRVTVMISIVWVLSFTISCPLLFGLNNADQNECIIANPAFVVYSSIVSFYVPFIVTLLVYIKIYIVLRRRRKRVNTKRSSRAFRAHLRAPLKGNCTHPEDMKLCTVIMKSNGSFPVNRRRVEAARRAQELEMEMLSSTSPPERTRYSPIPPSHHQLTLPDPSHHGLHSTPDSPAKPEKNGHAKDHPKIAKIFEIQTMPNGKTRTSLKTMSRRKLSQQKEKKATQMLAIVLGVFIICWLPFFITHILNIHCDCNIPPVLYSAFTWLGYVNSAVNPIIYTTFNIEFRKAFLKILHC

The term Ki denotes the equilibrium dissociation constant of an inhibitor or competing ligand from its target. Turning to `CCCN(CCCCC(=O)Nc1nc2c(OC)ccc(OC)c2s1)C1Cc2ccccc2C1` [Compound 30], the inhibition constant (Ki) on Human D2R turned out to be 370 ± 30 nM; at Human A2AAR, 160 ± 30 nM. Further, in data set [1] (brain, at 30 min, read-out: total concentration in the brain), the concentration at 30 min is approximately 3000 nM. Moreover, the Kp at 0.5 h in data set [1] (brain/plasma, peak after 30 min, mean±SD, read-out: brain-to-plasma ratio) came to 0.79 ± 0.13.
As to `CCN(CCCCC(=O)Nc1nc2c(Br)cccc2s1)C1Cc2ccccc2C1` [Compound 22], the Ki at Human D2R turned out to be 340 ± 40 nM; at Human A2AAR, 340 ± 50 nM.
For `CCCN(CCCCC(=O)Nc1nc2c(OC)cccc2s1)C1Cc2ccccc2C1` [Compound 26] the same measures were 230 ± 20 nM and 610 ± 90 nM.
The corresponding values for `CCCN(CCCCC(=O)Nc1nc2c(Br)cccc2s1)C1Cc2ccccc2C1` [Compound 27] are 530 ± 180 nM and 390 ± 50 nM.
